Patent US7501440B2, “Substituted benzoylureidopyridylpiperidine-and-pyrrolidinecarboxylic acid derivatives, processes for preparing them and their use” (Sanofi-Aventis Deutschland GmbH, priority 2003, dated 2009)

biological target: T1, human glycogen phosphorylase a (Homo sapiens, UniProt P06737); assay: Glycogen phosphorylase a activity test; assay type: biochemical; details: inhibition of GPa in vitro, reverse direction (glycogen synthesis from glucose 1-phosphate, release of inorganic phosphate)
T1 sequence (P06737 1-847): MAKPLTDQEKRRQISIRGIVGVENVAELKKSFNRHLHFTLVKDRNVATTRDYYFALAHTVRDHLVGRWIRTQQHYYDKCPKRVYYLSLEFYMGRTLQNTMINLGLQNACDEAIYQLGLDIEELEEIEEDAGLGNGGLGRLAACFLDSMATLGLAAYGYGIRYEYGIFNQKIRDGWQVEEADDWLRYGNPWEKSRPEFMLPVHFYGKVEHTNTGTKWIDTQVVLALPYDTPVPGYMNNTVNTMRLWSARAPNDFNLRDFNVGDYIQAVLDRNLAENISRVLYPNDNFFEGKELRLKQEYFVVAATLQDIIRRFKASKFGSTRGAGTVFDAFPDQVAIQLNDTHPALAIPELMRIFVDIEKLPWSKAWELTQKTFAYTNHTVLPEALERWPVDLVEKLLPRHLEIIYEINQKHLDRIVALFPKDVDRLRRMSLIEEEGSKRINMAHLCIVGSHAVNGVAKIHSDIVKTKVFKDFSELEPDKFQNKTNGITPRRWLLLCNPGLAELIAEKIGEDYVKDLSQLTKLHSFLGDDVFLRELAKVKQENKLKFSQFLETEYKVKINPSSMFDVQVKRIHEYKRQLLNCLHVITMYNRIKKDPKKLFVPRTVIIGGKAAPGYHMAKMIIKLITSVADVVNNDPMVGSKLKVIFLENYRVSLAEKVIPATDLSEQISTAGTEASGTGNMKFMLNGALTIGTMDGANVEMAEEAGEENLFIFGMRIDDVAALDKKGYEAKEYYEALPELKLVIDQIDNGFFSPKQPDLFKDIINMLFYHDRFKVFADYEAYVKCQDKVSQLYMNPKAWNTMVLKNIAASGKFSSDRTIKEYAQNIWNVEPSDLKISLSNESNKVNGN
Experimental: Glycogen Phosphorylase a Activity Test
The effect of compounds on the activity of the active form of glycogen phosphorylase (GPa) was measured in the reverse direction by monitoring the synthesis of glycogen from glucose 1-phosphate by determining the release of inorganic phosphate. All reactions were carried out as duplicate determinations in 96-well microtiter plates (half area plates, Costar No. 3696), and the change in absorption as a consequence of the formation of the reaction product was measured at the wavelength specified below in a Multiskan Ascent Elisa Reader (Lab Systems, Finland). In order to measure the GPa enzyme activity in the reverse direction, the conversion of glucose 1-phosphate to glycogen and inorganic phosphate was measured by the general method of Engers et al. (Engers H D, Shechosky S, Madsen N B, Can J Biochem 1970 July; 48(7):746-754) with the following modifications: human glycogen phosphorylase a (for example containing 0.76 mg of protein/ml (Aventis Pharma Deutschland GmbH), dissolved in buffer solution E (25 mM β-glycerophosphate, pH 7.0, 1 mM EDTA and 1 mM dithiothreitol) was diluted to a concentration of 10 μg of protein/ml with buffer T (50 mM Hepes, pH 7.0, 100 mM KCI, 2.5 mM EDTA, 2.5 mM MgCl2·6H2O) and addition of 5 mg/ml of glycogen. Test substances were prepared as a 10 mM solution in DMSO and diluted to 50 μM with buffer solution T. To 10 μl of this solution were added 10 μl of 37.5 mM glucose dissolved in buffer solution T and 5 mg/ml of glycogen, and also 10 μl of a solution of human glycogen phosphorylase a (10 μg of protein/ml) and 20 μl of 2.5 mM glucose 1-phosphate. The base value of the activity of glycogen phosphorylase a in the absence of test substance was determined by adding 10 μl of buffer solution T (0.1% DMSO). The mixture was incubated at room temperature for 40 minutes and the released inorganic phosphate was determined by means of the general method of Drueckes et al. (Drueckes P, Schinzel R, Palm D, Anal Biochem 1995 September 1;230(1):173-177) with the following modifications: 50 μl of a stop solution of 7.3 mM of ammonium molybdate, 10.9 mM of zinc acetate, 3.6% of ascorbic acid, 0.9% of SDS are added to 50 μl of the enzyme mixture. After 60 minutes of incubation at 45° C., the absorption was measured at 820 nm. To determine the background absorption, the stop solution was added immediately after the addition of the glucose 1-phosphate solution in a separate reaction. […]

IC50 [nM]	SMILES
160	NC(=O)C1CCN(c2ncccc2NC(=O)NC(=O)c2cc(F)c(F)cc2Cl)CC1 [Example 4, 3′-[3-(2-Chloro-4,5-difluorobenzoyl)ureido]-3,4,5,6-tetrahydro-2H-[1,2′]bipyridinyl-4-carboxamide]
3650	O=C(NC(=O)c1cc(F)c(F)cc1Cl)Nc1cccnc1N1CCC(C(=O)NCCO)CC1 [Example 5, N-(2-hydroxyethyl)-3′-[3-(2-chloro-4,5-difluorobenzoyl)ureido]-3,4,5,6-tetrahydro-2H-[1,2′]bipyridinyl-4-carboxamide]

Further lines, the molecule ahead of its results:

SMILES	IC50 [nM]
O=C(NC(=O)c1ccc(F)cc1Cl)Nc1cccnc1N1CCC(C(=O)O)CC1 [Example 1, 3′-[3-(2-Chloro-4-fluorobenzoyl)ureido]-3,4,5,6-tetrahydro-2H-[1,2′]bipyridinyl-4-carboxylic acid]	40
O=C(NC(=O)c1cc(F)c(F)cc1Cl)Nc1cccnc1N1CCC(C(=O)O)CC1 [Example 2, 3+-[3-(2-Chloro-4,5-difluorobenzoyl)ureido]-3,4,5,6-tetrahydro-2H-[1,2′]bipyridinyl-4-carboxylic acid]	10

tested on: not given; assay: not given; details: not given

melting point [°C]	SMILES
195.9	COC(=O)C1CCN(c2ncccc2NC(=O)NC(=O)c2cc(F)c(F)cc2Cl)CC1 [Example 3, Methyl 3′-[3-(2-chloro-4,5-difluorobenzoyl)ureido]-3,4,5,6-tetrahydro-2H-[1,2′]bipyridinyl-4-carboxylate]
250.9	O=C(NC(=O)c1cc(F)c(F)cc1Cl)Nc1cccnc1N1CCC(C(=O)O)(c2ccccc2)CC1 [Example 6, 3′-[3-(2-Chloro-4,5-difluorobenzoyl)ureido]-4-phenyl-3,4,5,6-tetrahydro-2H-[1,2′]bipyridinyl-4-carboxylic acid]
